Experimental data from PMC5949603, “Bridged bicyclic peptides as potential drug scaffolds: synthesis, structure, protein binding and stability” (Chemical Science, 2015).
Blank lines part the entries; values can stand above or below the compound they belong to. Where a SMILES comes first, the peptide text is derived from it. Bridges are numbered along the chain shown (N, C = ends). [ ]: non-standard residue; d: D form.

How the values were obtained:
Human calmodulin (CALM1) = biological target: T1, Human calmodulin (CALM1) (Homo sapiens, UniProt P0DP23); assay: MicroScale Thermophoresis (MST) binding to fluorescently labeled calmodulin; settings: 10 nM labeled calmodulin, 25 °C
T1 construct: purchased Enzo Life Sciences, Lausen, Switzerland
Procedure: Human calmodulin (Enzo Life Sciences, Lausen, Switzerland) was labeled using the RED-NHS Labeling kit (NanoTemper Technologies). The labeling reaction was performed according to the manufacturer's instructions in the supplied labeling buffer applying a concentration of 20 μM protein (molar dye : protein ratio ≈ 2 : 1) at RT for 30 min. Unreacted dye was removed with the supplied dye removal columns equilibrated with MST buffer (50 mM TrisHCl pH 7.5, 150 mM NaCl, 10 mM MgCl2). The label : protein ratio was determined using photometry at 650 and 280 nm. Thereby, a ratio of 0.8 was typically achieved. The labeled calmodulin was adjusted to 20 nM with MST buffer. […]
For thermophoresis, each ligand dilution was mixed with one volume of labeled calmodulin, which leads to a final concentration of fluorescently labeled calmodulin of 10 nM and final ligand concentrations ranging from 15.3 nM to 250 μM. […] Thermophoresis was measured using a Monolith NT.115 instrument (NanoTemper Technologies GmbH) at an ambient temperature of 25 °C with 5 s/30 s/5 s laser off/on/off times, respectively. […] Data of three independently pipetted measurements were analyzed (NT.Analysis software version 1.5.41, NanoTemper Technologies) using the signal from Thermophoresis + T-Jump. […]

CALM1 (calmodulin) [1] = biological target: T2, CALM1 (calmodulin) (Homo sapiens, UniProt P0DP23); assay: Isothermal titration calorimetry (ITC) with calmodulin; settings: 50 μM calmodulin in water, 25 °C, pH 6.5, read-out: KD (binding affinity to calmodulin by isothermal titration calorimetry)
Procedure: ITC experiments were performed using a MicroCal ITC200 from GE Healthcare. 27c and 28c were dissolved in water to a concentration of 0.7 and 0.6 mM, respectively. Calmodulin was dissolved in water at 50 μM. Optionally CaCl2 (final concentration 500 μM) or EDTA (final concentration 1 mM) were added. The peptide solution was injected into the calmodulin solution (2.5 μL of peptide per injection at an interval of 180 s, a total of 15 injections into the cell volume of 200 μL, with stirring speed of 800 rpm, at 25 °C). […] The experimental data were fitted to a theoretical titration curve (“one set of sites” model) using software supplied by Microcal, with n (number of binding sites per monomer), ΔH (binding enthalpy, kcal mol^–1) and Ka (association constant, M^–1), as adjustable parameters. Thermodynamic parameters were calculated from the Gibbs free energy equation, ΔG = ΔH – TΔS = –RT ln Ka, where ΔG, ΔH, and ΔS are the changes in free energy, enthalpy, and entropy of binding, respectively. T is the absolute temperature, and R = 1.98 cal mol^–1 K^–1.

[2] = Human serum stability assay; format: in vitro ADME; settings: 24 h, 37 °C, 200 μM peptide
Procedure: Human serum was diluted 1 : 4 in DMEM. Selected peptide was diluted in TRIS buffer to a concentration of 400 μM. Aliquots of peptide solution (50 μL) were added to aliquots of serum (50 μL) in sterile Eppendorf tubes, to reach a peptide concentration of 200 μM during the assay. Samples were incubated at 37 celsius degree under gentle stirring (350 rpm). Different samples (triplicate) were quenched at different time points (0/1/3/6/24 h) by precipitating serum proteins through the addition of ZnSO4·7H2O (0.1 M, 100 μL) and cooling down in ice bath. Protein precipitates were pelleted under centrifugation and the supernatants were sampled and evaporated to dryness in a centrifugal evaporator. Samples were resuspended in a H2O/ACN (4 : 1) mixture and centrifuged again to remove residual protein precipitate. Supernatants were then sampled and analysed by LC-MS. Experiment controls included a precipitation control for each peptide, to test their resistance to the protein precipitation conditions, and serum blanks, to check reproducibility over different serum batches. Two peaks originating from DMEM, surviving the incubation in serum and the protein precipitation conditions were used as internal standard.

[3] = Water solubility (stated in words); format: physicochemical
CALM1 (calmodulin) [4] = biological target: T2, CALM1 (calmodulin); assay: Capture compound mass spectrometry (CCMS) proteome profiling in HeLa cell lysate; format: binding; parameters: endogenous in cells; host or cells: HeLa cell lysate; settings: probe 5 μM, competitor 240 μM, enrichment >2-fold, triplicate
Procedure: Capture experiments were carried out in PCR strips according to the general CCMS procedure.[48] 400 μg of HeLa cell lysate at 10 μg μL^–1 was pipetted for each set in triplicate. To the competition samples, 240 μM of BBP-competitor was added as a final concentration and incubated for 30 min at 4 °C. Assay and competition samples were then incubated with BBP-capture compounds or BBP-scaffold controls at a final concentration of 5 μM for 1 hour at 4 °C on a rotating axis and irradiated for 10 min at 310 nm in a caproBox™ (caprotec bioanalytics GmbH) to promote covalent cross-linking. Streptavidin-coated magnetic beads (Invitrogen) were added to the samples and further rotated for 1 hour at 4 °C. The beads were collected using a caproMag (caprotec bioanalytics GmbH) and washed 4 times with washing buffer (caprotec bionanalytics GmbH) followed by 3 times washing with 80% acetonitrile and lastly resuspended in MS-grade water. For tryptic digestion, the magnetic beads were incubated with trypsin in 50 mM ammonium bicarbonate for 16 hours at 37 °C. The supernatant was recovered, evaporated and stored at –20 °C until mass spectrometry analysis.
Mass Spectrometry: Tryptic digests were analyzed by online nanoflow liquid chromatography tandem MS (LC-MSn) on an UltiMate 3000 RSLCnano System (Dionex, part of Thermo Fisher Scientific, Germany) coupled to a LTQ-Orbitrap Velos instrument (Thermo Fisher Scientific, Germany) through a Proxeon nanoelectrospray ion source (Proxeon, part of Thermo Fisher Scientific, Germany). For chromatographic separation samples were first loaded on a reversed phase (RP) precolumn (Acclaim PepMap100, 5 μm, 100 Å, 100 μm i.d. × 20 mm) and separated on a RP analytical column (Acclaim PepMap RSLC C18, 2 μm, 100 Å, 75 μm i.d. × 150 mm, Dionex, part of Thermo Fisher Scientific, Germany) performing a 96 min gradient (5–45 % acetonitrile, 0.1% formic acid). MS detection was performed in the data-dependent mode allowing to automatically switch between Orbitrap-MS and LTQ-MS/MS acquisition in a top 20 configuration at 60 K resolution for a full scan with subsequent collision induced dissociation (CID) fragmentation. Full scan MS spectra (from m/z 300–2000) were acquired in the Orbitrap analyzer after accumulation to a target value of 1 × 10^6 in the linear ion trap. The most intense ions (up to twenty, depending on signal intensity) with charge state ≥2 were sequentially isolated at a target value of 5000 and fragmented in the linear ion trap using low energy CID with normalized collision energy of 35%. […] All MS/MS data were analyzed using Andromeda implemented in MaxQuant.[33] […] The label free quantification option was selected with a maximal retention time window of 2 min for the alignment between LC-MS/MS runs.

- KD (binding affinity to calmodulin by microscale thermophoresis) (Human calmodulin (CALM1); MST buffer pH 7.5): no measurable affinity
- Kd (CALM1 (calmodulin) [1]): 6.8 ± 0.6 µM
Compound: N=C(N)NCCC[C@@H]1NC(=O)CSC[C@H]2NC(=O)[C@@H](Cc3ccccc3)NC(=O)[C@H](CCCNC(=N)N)NC(=O)[C@H](CCC(=O)NCCCC[C@@H](C(=O)NCC(N)=O)NC(=O)[C@H](Cc3ccccc3)NC2=O)NC1=O [28c, R^2E^1Rfz^2FK^1G] ({CH2CO}-RER[dF][dC]FKG-NH2; lactam 2-7; thioether N-5)

- CALM1 (calmodulin) identified as target by CCMS (CALM1 (calmodulin) [4]): did not indicate this target
Compound: R^2E^1Rfz^2FK^1GBGGK(biot) [28x]

- CALM1 (calmodulin) identified as target by CCMS (CALM1 (calmodulin) [4]): did not indicate this target
Compound: R^2E^1Rfz^2FK^1GFGGK(biot) [28s]

Continued, compound first:

Compound: NCCCC[C@@H]1NC(=O)CSC[C@H]2NC(=O)[C@@H](Cc3c[nH]c4ccccc34)NC(=O)[C@H](CCCCN)NC(=O)[C@H](CCC(=O)NCCCC[C@@H](C(=O)NCC(N)=O)NC(=O)[C@H](Cc3c[nH]c4ccccc34)NC2=O)NC1=O [27c, K^2E^1Kwz^2WK^1G] ({CH2CO}-KEK[dW][dC]WKG-NH2; lactam 2-7; thioether N-5)
- Kd (Human calmodulin (CALM1); MST buffer pH 7.5, read-out: KD (binding affinity to calmodulin by microscale thermophoresis)): 4.5 ± 1.1 µM
- Kd (CALM1 (calmodulin) [1]): 0.8 ± 0.05 µM
- Stability upon incubation in human serum [2]: entirely stable

Compound: CC(C)C[C@H]1NC(=O)CC[C@@H]2NC(=O)[C@@H]3CCCN3C(=O)[C@@H](Cc3ccccc3)NC(=O)[C@@H](CCCCNC(=O)[C@@H](C)NC2=O)NC(=O)CNC1=O [compound 1, l^1Gk^2fPE^1a^2] ([dL]G[dK][dF]PE[dA]; lactam 3-C, N-6)
- Water solubility [3]: water insoluble

Compound: CC(C)C[C@@H]1NC(=O)CC[C@@H]2NC(=O)[C@@H]3CCCN3C(=O)[C@@H](Cc3ccc(O)cc3)NC(=O)[C@@H](CCCCNC(=O)[C@H](C)NC2=O)NC(=O)CNC1=O [compound 15, L^1Gk^2yPE^1A^2] (LG[dK][dY]PEA; lactam 3-C, N-6)
- Stability upon incubation in human serum [2]: stable

Compound: K^2E^1Kwz^2WK^1GBGGK(biot) [27x]
- CALM1 (calmodulin) identified as target by CCMS (CALM1 (calmodulin) [4]): specifically targeted

Compound: K^2E^1Kwz^2WK^1GFGGK(biot) [27s]
- CALM1 (calmodulin) identified as target by CCMS (CALM1 (calmodulin) [4]): specifically targeted
